For the experiment, the system named is CCL64 mink lung epithelial cells. Put plainly: CCL64 TGF-β bioassay (growth, crystal violet). Type of experiment: cell-based. Conditions: human TGF-β1 and TGF-β2. As to the method: FIG. 1. Prevention of the growth inhibitory effects of recombinant and glioma-derived TGF-b1 and TGF-b2 by a TGF-β inhibitor (Compound No. 79 in Table 2). A. CCL64 cells were exposed to human recombinant TGF-b1 (filled symbols) or TGF-b2 (open symbols) (10 ng/ml) in the absence or presence of increasing concentrations of Comopund No. 79 for 72 h. B. CCL64 cells were maintained in serum-free medium containing heat-activated glioma cell SN (1:1) in the absence or presence of Compound No. 79 for 72 h. Growth was assessed by crystal violet assay (mean and SD, n=3).
The levels of bioactive TGF-β were determined using the CCL64 bioassay. Briefly, […] CCL64 cells were adhered to 96 well plates for 24 h, full medium was replaced by serum-free medium, and the cells were exposed to recombinant TGF-β1/2 or glioma cell culture supernatants diluted in serum-free medium for 72 h. Growth was assessed by crystal violet staining at 72 h. Glioma cell supernatants were harvested from confluent cultures maintained for 48 h in serum-free medium and heat-treated (5 min, 85° C.) to activate latent TGF-β (Leitlein et al., J. Immunol., 166:7238-7243 (2001)).

In the case of “TGF-β1: "Human recombinant TGF-β1 and TGF-β2 were obtained from Peprotech (London, UK)"”, the “EC50 of growth inhibitory effect on CCL64 cells” value came out at 0.5 ng/mL.
For the substance “TGF-β2: "Human recombinant TGF-β1 and TGF-β2 were obtained from Peprotech (London, UK)"”, the “EC50 of growth inhibitory effect on CCL64 cells” value was found to be 0.5 ng/mL.

For the origin of these results see US20050245508A1, “Treatment of malignant gliomas with TGF-beta inhibitors” (SCIOS, Inc., priority 2003, published 2005).
